Test results from patent US20260199493A1 (priority 2021, published 2026).

Legend:
[1] = test system: MBNL1 downstream genes (Atp2a1, Nfix, Clcn1, Mbnl1); settings: 1 week
Description: (§1) 9 week old HSA-LR mice and control FVB mice were employed in a 1 week post single dose range study. The HSA-LR mice were divided into 5 groups. […] Tissues were harvested after 7 days. RT-PCR was used to determine alternative splicing for specific genes (Atp2a1, Clcn1, Nfix, MBNL1). LC-mass was used to determine drug level in Quad, gastro, TA, Triceps, diaphragm, heart, kidney, liver, Brain, plasma. RNA-seq was used to determine the transcription level change between a treated disease model, an untreated disease model and wild-type. Fluorescence imaging was used to determine RNA Foci reduction after treatment with the EEV-oligo compound. […] Q-PCR was used to determine the reduction of mRNA level of actin-HSA after treatment.
(§2) RT-PCR was used to determine alternative splicing for specific genes (Atp2a1, Clcn1, Nfix, MBNL1). LC-mass was used to determine drug level in Quad, gastro, TA, Triceps, diaphragm, heart, kidney, liver, Brain, plasma. RNA-seq was used to determine the transcription level change between a treated disease model, an untreated disease model and wild-type. Fluorescence imaging was used to determine RNA Foci reduction after treatment with the EEV-oligo compound. Myotonia reduction was recorded 7 days after treatment with the EEV-oligo compound. Q-PCR was used to determine the reduction of mRNA level of actin-HSA after treatment.

HSA mRNA = settings: HSA-LR mice
Description: as §2, with “[…] The HSA-LR mice were divided into 5 groups. […] […] RT-PCR” for “RT-PCR”, “Myotonia reduction was recorded 7 days after treatment with the EEV-oligo compound.” left out
as §2

[2] = Description: as §1
CUG foci = settings: HSA-LR mouse, 1 week
Description: as §1

[3] = test system: DM1 patient-derived muscle cells; settings: 30 μM, 4 days of differentiation
Protocol: (§3) Patient myoblasts were treated with 30 micromolar of EEV-oligo throughout 4 days of differentiation. Splicing correction was assessed by one-step RT-PCR. HCR—FISH and sequestered MBNL1 protein detection assays were used to detect RNA foci.
(§4) Patient myoblasts harbor 2600 CTG repeats within the DMPK 3′UTR. […] Splicing correction was assessed by one-step RT-PCR and Labchip analysis. Plotted mean f SD; n=4 HCR—FISH assay for CUG foci detection in place.

nuclear foci (CUG foci) = settings: DM1 patient-derived muscle cells, 30 μM, 4 days of differentiation
Protocol: as §3, §4

IRF-5 gene exon skipping = settings: RAW 264.7 cells, 5 μM
Protocol: Briefly, 150K cells/well were seeded in a 24 well plate in 0.5 ml DMEM. […] Following the second incubation, the RNA was harvested and RT-PCR was done using primers that detect exon 5 skipping in the IRF-5 gene.

IRF5 protein = settings: for efficacy relative to EEV-PMO-IRF5-1 / IRF-5 protein expression compared to cells stimulated with R848 / IRF-5 protein reduction: RAW 264.7 cells; for efficacy relative to EEV-PMO-IRF5-1 / relative potency compared to EEV-PMO-IRF5-1 (IRF5 protein expression): R848 stimulation; for efficacy relative to EEV-PMO-IRF5-1: on average; for IRF-5 protein expression compared to cells stimulated with R848: all tested concentrations; for IRF-5 protein reduction: concentrations as low as 2 μM, vs cells stimulated with R848; for relative potency compared to EEV-PMO-IRF5-1 (IRF5 protein expression): mouse macrophage cells, Western Blot
GYS1 = settings: GAA knockout mice, single IV dose, one-week post-injection
[4] = in vivo
Description: as §1, §2

[5] = test system: Human Primary Renal Proximal Tubular Epithelial Cells (RPTECs); settings: 24 hours
[6] = HSA-LR mice, 15, 30, 60, 90 mpk IV

## Ac-PKKKRKV-AEEA-K(cyclo[FGFGRGRQ])-PEG12-OH [EEV-PMO-DM1-3]
[1]; [6]
  correction of MBNL1 downstream genes, gastrocnemius: dose dependent correction
  correction of MBNL1 downstream genes, quadriceps: dose dependent correction
  correction of MBNL1 downstream genes, tibialis anterior: dose dependent correction
  correction of MBNL1 downstream genes, triceps: dose dependent correction
[1]; HSA-LR mice, 60 mpk oligo, 80 mpk whole drug
  mis-splicing in gastrocnemius, triceps, tibialis anterior and quadricep: fully correct mis-splicing
HSA mRNA; 80 mpk IV, 1-week and 4-week post-injection
  HSA mRNA knockdown: HSA mRNA knockdown trend
HSA mRNA; quadriceps, gastrocnemius, triceps, tibialis anterior, 1 week
  HSA mRNA knockdown in skeletal muscles: 50-70%
[2]; HSA-LR mice, 15, 30, 60 and 90 mpk, 7 days
  myotonia: dose dependent myotonia reduction
[2]; HSA-LR mice, single dose 90 mg/kg, 1 week
  hindlimb myotonia: did not exhibit obvious signs of hindlimb myotonia after induction
CUG foci
  CUG foci in TA muscle: reduces CUG foci
[3]
  biomarker splicing correction: significant biomarker splicing correction
Nuclear foci (CUG foci)
  nuclear foci: reduction in nuclear foci

## Ac-PKKKRKV-AEEA-K(cyclo[FGFGRRRQ])-PEG12-OH [EEV-PMO-IRF5-3]
IRF-5 gene exon skipping
  exon skipping compared to EEV-PMO-IRF5-1: higher exon skipping
IRF5 protein
  efficacy relative to EEV-PMO-IRF5-1: 5 fold
  IRF-5 protein expression compared to cells stimulated with R848: significant reduction in IRF-5 protein expression
  IRF-5 protein reduction: about 80%
  relative potency compared to EEV-PMO-IRF5-1 (IRF5 protein expression): significant improvement in relative potency

## Ac-PKKKRKV-AEEA-K(cyclo[FGFRRRRQ])-PEG12-OH [EEV-PMO-IRF5-4]
IRF-5 gene exon skipping
  exon skipping compared to EEV-PMO-IRF5-1: higher exon skipping
IRF5 protein
  efficacy relative to EEV-PMO-IRF5-1: 5 fold
  IRF-5 protein expression compared to cells stimulated with R848: significant reduction in IRF-5 protein expression
  IRF-5 protein reduction: about 80%
  relative potency compared to EEV-PMO-IRF5-1 (IRF5 protein expression): significant improvement in relative potency

## Ac-PKKKRKV-AEEA-K(cyclo[FfΦGrGrQ])-PEG12-OH [EEV-PMO-IRF5-2]
IRF-5 gene exon skipping
  exon skipping compared to EEV-PMO-IRF5-1: higher exon skipping
IRF5 protein
  efficacy relative to EEV-PMO-IRF5-1: 5 fold
  IRF-5 protein expression compared to cells stimulated with R848: significant reduction in IRF-5 protein expression
  IRF-5 protein reduction: about 80%
  relative potency compared to EEV-PMO-IRF5-1 (IRF5 protein expression): significant improvement in relative potency

## Ac-PKKKRKV-PEG2-K(cyclo[Ff-Φ-Cit-r-Cit-rQ1)-PEG12-K(N3)-NH2 [EEV-PMO-GYS1-1]
GYS1
  GYS1 expression in the diaphragm and cardiac muscle: significant knockdown

## Ac-PKKKRKV-PEG2-K(cyclo[Ff-Φ-GrGrQ])-PEG2-K(N3)-NH2 [EEV-PMO-GYS1-2]
GYS1
  GYS1 expression in the diaphragm and cardiac muscle: significant knockdown

## CAGCAGCAGCAGCAGCAGCAG [PMO-DM1]
[4]
  metabolite of EEV-PMO-DM1-3: major metabolite detected in vivo
[5]
  toxicity (viability): no toxicity at highest concentration tested: > 817 µM
